{"source": "patent US20250025473A1", "about": "(priority 2021, published 2025)", "key": {"[1]": {"system": "MDCK-MDR1 cells", "conditions": "5 μM"}, "[2]": {"system": "VSV-S (VSV pseudotyped with SARS-CoV-2 spike protein)", "format": "cell-based"}, "[3]": {"biological_target": "T1, panel of 393 kinases (Homo sapiens, UniProt P54646)", "T1 construct": "purchased Reaction Biology Corporation", "T1 sequence (P54646 whole entry)": "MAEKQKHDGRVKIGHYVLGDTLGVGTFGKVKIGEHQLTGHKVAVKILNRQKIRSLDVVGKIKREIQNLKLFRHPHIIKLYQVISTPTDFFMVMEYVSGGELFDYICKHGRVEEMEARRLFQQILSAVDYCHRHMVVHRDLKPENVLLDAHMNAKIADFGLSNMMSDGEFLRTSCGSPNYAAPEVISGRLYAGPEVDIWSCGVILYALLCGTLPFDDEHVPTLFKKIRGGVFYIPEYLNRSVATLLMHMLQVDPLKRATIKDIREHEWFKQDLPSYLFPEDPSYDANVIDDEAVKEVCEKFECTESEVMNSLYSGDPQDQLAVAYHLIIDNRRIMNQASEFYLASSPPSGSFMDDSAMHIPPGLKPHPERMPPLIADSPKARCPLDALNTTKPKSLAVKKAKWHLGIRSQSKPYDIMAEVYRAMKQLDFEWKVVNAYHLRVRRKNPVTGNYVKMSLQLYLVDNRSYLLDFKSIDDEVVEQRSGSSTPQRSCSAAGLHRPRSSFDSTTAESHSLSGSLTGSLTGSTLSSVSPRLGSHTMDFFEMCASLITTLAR", "test": "biochemical", "conditions": "control compound"}, "[4]": {"biological_target": "T2, panel of 393 kinases (Homo sapiens, UniProt Q13131)", "T2 construct": "purchased Reaction Biology Corporation", "T2 sequence (Q13131 whole entry)": "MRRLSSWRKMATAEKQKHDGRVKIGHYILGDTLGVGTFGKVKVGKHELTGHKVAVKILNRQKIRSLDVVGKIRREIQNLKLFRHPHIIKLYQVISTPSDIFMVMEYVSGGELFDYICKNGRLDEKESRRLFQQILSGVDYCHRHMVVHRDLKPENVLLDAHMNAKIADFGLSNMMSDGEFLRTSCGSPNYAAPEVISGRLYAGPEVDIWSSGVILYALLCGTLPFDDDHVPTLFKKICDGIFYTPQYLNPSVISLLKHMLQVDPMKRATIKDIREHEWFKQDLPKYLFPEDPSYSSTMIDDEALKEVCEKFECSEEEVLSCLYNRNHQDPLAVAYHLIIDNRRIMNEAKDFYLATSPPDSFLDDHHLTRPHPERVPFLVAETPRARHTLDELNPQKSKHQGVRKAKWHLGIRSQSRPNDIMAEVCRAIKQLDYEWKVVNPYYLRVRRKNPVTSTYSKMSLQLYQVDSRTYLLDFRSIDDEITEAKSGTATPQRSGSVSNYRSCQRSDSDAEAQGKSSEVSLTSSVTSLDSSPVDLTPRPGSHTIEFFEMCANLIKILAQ", "test": "biochemical", "conditions": "control compound"}, "[5]": {"biological_target": "T3, panel of 393 kinases (Homo sapiens, UniProt Q9BQI3)", "T3 construct": "purchased Reaction Biology Corporation", "T3 sequence (Q9BQI3 whole entry)": "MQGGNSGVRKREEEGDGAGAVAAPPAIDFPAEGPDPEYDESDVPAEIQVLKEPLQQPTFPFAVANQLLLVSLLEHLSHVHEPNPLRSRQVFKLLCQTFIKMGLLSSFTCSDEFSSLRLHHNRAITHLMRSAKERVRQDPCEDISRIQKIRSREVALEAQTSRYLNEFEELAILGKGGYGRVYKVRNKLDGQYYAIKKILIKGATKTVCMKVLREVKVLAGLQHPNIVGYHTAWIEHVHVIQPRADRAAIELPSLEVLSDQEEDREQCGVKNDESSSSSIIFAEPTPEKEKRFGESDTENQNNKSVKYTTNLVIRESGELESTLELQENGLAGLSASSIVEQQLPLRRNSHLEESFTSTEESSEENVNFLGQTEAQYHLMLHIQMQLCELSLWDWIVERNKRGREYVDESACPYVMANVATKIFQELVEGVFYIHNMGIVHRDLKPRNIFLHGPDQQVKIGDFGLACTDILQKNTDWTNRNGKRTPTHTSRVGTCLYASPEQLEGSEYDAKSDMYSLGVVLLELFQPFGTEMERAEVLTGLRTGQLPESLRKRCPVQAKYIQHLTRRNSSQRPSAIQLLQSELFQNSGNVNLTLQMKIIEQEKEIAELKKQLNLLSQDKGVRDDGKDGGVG", "test": "biochemical"}, "[6]": {"system": "HaCat cells", "test": "Cytotoxicity/viability, confluent HaCat cells", "format": "cell-based, human", "conditions": "10 μM", "method": "Results are presented as mean±SEM odu as a percentage of the DMSO control (n=2 independent experiments each conducted in duplicate for C and 1 experiment conducted in duplicate for D). Results in B-D were compared by ANOVA, *p<0.05, **p<0.01, ***p<0.001, ****p<0.0001).\nCell proliferation and viability were determined using the Cell Titer 96® Aqueous One Solution and optical density was determined using a SpectraMax® M5e Molecular Devices multidetection microplate reader. […] The cells were then fixed and stained for activated caspases (red) and SYTOX Green (for integrity of plasma membrane) by Image-iT™ LIVE red Poly Caspase Detection kit. Nuclei were stained with Hoechst. Images were acquired by laser confocal microscope ZeissLive/DuoScan equipped with oil immersion objectives 63×1.1 and captured in an optical slice of 0.37 μm with appropriate filters. Alternatively, immunoblots were prepared and probed with antibodies to cleaved PARP-1 or cleaved caspase 8."}, "[7]": {"system": "PLSCR1", "test": "PLSCR1 phosphorylation after HSV-2 (immunoprecipitation/Western)", "format": "cell-based, human", "conditions": "10 μM, HaCat, 30 minutes"}, "[8]": {"system": "phosphatidylserine (PtdS) and Akt", "test": "Translocation of PtdS and Akt to the outer leaflet after HSV-2 (confocal, non-permeabilized)", "format": "cell-based, human", "conditions": "HaCat, HSV-2(G)"}, "[9]": {"system": "PLSCR1", "format": "cell-based, monkey", "conditions": "Vero, 30 minutes; drugs 10 μM each"}, "[10]": {"test": "Parallel artificial membrane permeability assay (PAMPA)", "format": "in vitro ADME"}, "[11]": {"system": "HSV-1 K26GFP", "test": "HSV capsid entry, GFP+ cells by confocal imaging", "conditions": "HaCat, 4 h post-temperature shift; CIMSS 10 μM, anti-Akt 2 μg/ml, cycloheximide 10 μg/ml"}, "[12]": {"biological_target": "T4, panel of 393 kinases (Homo sapiens, UniProt Q96QT4)", "T4 construct": "purchased Reaction Biology Corporation", "T4 sequence (Q96QT4 whole entry)": "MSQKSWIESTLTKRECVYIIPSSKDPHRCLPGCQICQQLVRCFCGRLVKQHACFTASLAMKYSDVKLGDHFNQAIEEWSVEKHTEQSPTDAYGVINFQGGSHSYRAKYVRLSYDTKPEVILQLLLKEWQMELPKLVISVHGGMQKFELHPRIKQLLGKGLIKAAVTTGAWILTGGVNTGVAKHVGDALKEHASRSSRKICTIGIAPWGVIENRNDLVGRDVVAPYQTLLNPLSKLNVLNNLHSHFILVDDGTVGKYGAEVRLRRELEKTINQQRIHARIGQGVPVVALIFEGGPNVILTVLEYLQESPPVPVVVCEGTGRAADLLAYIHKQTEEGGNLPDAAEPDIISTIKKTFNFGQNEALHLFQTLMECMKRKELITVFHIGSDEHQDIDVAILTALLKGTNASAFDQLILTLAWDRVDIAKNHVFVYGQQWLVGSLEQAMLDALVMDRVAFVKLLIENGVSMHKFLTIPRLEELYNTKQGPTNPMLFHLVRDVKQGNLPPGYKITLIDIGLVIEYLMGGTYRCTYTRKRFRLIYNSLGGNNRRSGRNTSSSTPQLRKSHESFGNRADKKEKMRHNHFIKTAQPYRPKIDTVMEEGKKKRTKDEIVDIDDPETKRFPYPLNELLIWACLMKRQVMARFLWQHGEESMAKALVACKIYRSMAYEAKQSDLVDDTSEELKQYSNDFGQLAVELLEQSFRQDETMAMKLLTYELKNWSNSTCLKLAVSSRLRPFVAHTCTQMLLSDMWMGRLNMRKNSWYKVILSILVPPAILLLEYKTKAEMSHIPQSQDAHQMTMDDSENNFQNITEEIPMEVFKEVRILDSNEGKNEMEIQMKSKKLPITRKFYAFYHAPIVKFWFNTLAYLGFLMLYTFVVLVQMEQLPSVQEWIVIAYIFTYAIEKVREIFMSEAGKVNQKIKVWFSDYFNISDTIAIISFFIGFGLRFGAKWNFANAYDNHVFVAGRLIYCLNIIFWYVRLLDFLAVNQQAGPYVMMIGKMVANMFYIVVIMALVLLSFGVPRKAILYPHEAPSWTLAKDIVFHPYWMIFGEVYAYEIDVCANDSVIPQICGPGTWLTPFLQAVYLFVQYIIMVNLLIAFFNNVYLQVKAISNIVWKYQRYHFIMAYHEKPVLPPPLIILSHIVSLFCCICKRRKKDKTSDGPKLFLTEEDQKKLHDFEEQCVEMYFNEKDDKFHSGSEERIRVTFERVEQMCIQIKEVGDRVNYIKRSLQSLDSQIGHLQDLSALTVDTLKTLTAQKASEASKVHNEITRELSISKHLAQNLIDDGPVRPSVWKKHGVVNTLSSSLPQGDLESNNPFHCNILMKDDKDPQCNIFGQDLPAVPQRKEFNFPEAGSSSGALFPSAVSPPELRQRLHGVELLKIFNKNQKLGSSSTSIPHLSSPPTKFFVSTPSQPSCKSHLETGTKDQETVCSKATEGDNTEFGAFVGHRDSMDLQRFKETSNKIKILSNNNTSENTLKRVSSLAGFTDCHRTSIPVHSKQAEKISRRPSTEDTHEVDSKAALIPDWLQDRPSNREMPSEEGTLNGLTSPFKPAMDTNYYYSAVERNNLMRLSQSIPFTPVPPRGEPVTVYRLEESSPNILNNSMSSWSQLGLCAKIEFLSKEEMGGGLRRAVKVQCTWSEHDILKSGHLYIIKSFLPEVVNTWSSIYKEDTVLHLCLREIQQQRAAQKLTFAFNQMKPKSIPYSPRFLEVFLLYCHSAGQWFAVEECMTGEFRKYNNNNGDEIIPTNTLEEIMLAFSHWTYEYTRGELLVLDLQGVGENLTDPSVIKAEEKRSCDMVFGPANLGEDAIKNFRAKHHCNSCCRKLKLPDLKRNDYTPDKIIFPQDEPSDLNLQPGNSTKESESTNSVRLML", "test": "biochemical", "conditions": "kinase TRPM7/CHAK1; control compound"}, "[13]": {"biological_target": "T5, panel of 393 kinases (Homo sapiens, UniProt Q15118)", "T5 construct": "purchased Reaction Biology Corporation", "T5 sequence (Q15118 29-436)": "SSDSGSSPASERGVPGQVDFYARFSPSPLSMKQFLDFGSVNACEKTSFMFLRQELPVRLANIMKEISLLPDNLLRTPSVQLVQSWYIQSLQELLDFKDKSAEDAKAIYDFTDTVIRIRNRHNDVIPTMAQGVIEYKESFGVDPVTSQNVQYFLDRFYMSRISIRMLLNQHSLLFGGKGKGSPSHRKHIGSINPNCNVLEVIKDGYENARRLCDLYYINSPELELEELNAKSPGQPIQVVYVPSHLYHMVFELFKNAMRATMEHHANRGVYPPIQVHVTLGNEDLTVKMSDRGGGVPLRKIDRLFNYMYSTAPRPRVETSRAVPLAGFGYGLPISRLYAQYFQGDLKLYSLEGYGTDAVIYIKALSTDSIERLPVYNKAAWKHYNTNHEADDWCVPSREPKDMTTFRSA", "test": "biochemical", "conditions": "kinase PDK1/PDHK1; control compound"}, "[14]": {"biological_target": "T6, panel of 393 kinases (Homo sapiens, UniProt Q15119)", "T6 construct": "purchased Reaction Biology Corporation", "test": "biochemical", "conditions": "kinase PDK2/PDHK2; control compound"}, "[15]": {"biological_target": "T7, panel of 393 kinases (Homo sapiens, UniProt Q15120)", "T7 construct": "purchased Reaction Biology Corporation", "T7 sequence (Q15120 whole entry)": "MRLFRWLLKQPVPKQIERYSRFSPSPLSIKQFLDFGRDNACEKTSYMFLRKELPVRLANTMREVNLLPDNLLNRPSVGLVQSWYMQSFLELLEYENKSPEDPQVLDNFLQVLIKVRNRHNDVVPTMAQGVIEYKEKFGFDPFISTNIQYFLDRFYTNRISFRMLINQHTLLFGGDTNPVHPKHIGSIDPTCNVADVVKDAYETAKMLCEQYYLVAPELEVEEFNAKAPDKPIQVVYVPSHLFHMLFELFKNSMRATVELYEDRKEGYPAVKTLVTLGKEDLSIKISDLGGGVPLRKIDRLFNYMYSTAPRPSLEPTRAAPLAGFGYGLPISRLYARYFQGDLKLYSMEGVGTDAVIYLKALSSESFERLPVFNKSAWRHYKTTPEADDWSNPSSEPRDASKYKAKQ", "test": "biochemical", "conditions": "kinase PDK3/PDHK3; control compound"}, "[16]": {"biological_target": "T8, panel of 393 kinases (Homo sapiens, UniProt Q16654)", "T8 construct": "purchased Reaction Biology Corporation", "T8 sequence (Q16654 whole entry)": "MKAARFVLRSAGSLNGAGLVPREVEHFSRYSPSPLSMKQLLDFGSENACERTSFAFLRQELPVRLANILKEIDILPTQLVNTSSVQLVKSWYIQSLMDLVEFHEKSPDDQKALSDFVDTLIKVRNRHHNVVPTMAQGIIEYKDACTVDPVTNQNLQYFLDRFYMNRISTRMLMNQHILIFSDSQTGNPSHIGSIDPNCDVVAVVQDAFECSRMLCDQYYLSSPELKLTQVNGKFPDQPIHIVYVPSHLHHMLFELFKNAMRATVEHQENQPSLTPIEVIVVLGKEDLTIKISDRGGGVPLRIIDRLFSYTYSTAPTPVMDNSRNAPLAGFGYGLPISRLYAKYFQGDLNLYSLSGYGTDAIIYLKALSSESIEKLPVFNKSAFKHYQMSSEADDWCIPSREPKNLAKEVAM", "test": "biochemical", "conditions": "kinase PDK4/PDHK4; control compound"}}, "note": "Counter-ions that a name gives are not always drawn.", "data": [{"compound": "C[C@H]1O[C@@H](O[C@H]2[C@@H](O)C[C@H](O[C@H]3[C@@H](O)C[C@H](O[C@H]4CC[C@@]5(C)[C@H](CC[C@@H]6[C@@H]5C[C@@H](O)[C@]5(C)[C@@H](C7=CC(=O)OC7)CC[C@]65O)C4)O[C@@H]3C)O[C@@H]2C)C[C@H](O)[C@@H]1O", "note": "[Digoxin]", "values": [{"measurement": "Recover %, MDCK Transport", "setting": "[1]", "result": 96, "unit": "%"}]}, {"compound": "CN(C)C(=O)COC(=O)Cc1ccc(OC(=O)c2ccc(NC(=N)N)cc2)cc1", "note": "[camostat mesylate, reference compound]", "values": [{"measurement": "VSV-S infection (plaques or viral yields)", "setting": "[2]", "result": "inhibited"}]}, {"compound": "Ro-31-8220", "values": [{"measurement": "IC50", "setting": "[3]; kinase AMPK (A2/B1/G3)", "result": 0.296, "unit": "µM"}, {"measurement": "IC50", "setting": "[3]; kinase AMPK(A2/B1/G1)", "result": 0.212, "unit": "µM"}, {"measurement": "IC50", "setting": "[3]; kinase AMPK(A2/B2/G1)", "result": 0.0978, "unit": "µM"}, {"measurement": "IC50", "setting": "[3]; kinase AMPK(A2/B2/G2)", "result": 0.1, "unit": "µM"}, {"measurement": "IC50", "setting": "[3]; kinase AMPK(A2/B2/G3)", "result": 0.186, "unit": "µM"}, {"measurement": "IC50", "setting": "[4]; kinase AMPK(A1/B1/G1)", "result": 0.0668, "unit": "µM"}, {"measurement": "IC50", "setting": "[4]; kinase AMPK(A1/B1/G2)", "result": 0.0768, "unit": "µM"}, {"measurement": "IC50", "setting": "[4]; kinase AMPK(A1/B1/G3)", "result": 0.179, "unit": "µM"}, {"measurement": "IC50", "setting": "[4]; kinase AMPK(A1/B2/G1)", "result": 0.116, "unit": "µM"}]}, {"compound": "Cn1cc(-c2ccc3c(c2)CCN3C(=O)Cc2cccc(C(F)(F)F)c2)c2c(N)ncnc21", "note": "[GSK-2606414]", "values": [{"measurement": "IC50", "setting": "[5]", "result": 0.0962, "unit": "µM"}]}, {"compound": "CN[C@@H]1C[C@H]2O[C@@](C)([C@@H]1OC)n1c3ccccc3c3c4c(c5c6ccccc6n2c5c31)C(=O)NC4", "note": "[Staurosporine, (9S,10R,11R,13R)-2,3,10,11,12,13-hexahydro-10-methoxy-9-methyl-11-(methylamino)-9,13-epoxy-1H,9H-diindolo[1,2,3-gh:3′,2′,1′-lm]pyrrolo[3,4-j][1,7]benzodiazonin-1-one, reference compound]", "values": [{"measurement": "cytotoxicity", "setting": "[6]; confluent HaCat, 72 and 120 hours of exposure", "result": "completely cytotoxic"}, {"measurement": "cytotoxicity", "setting": "[6]; fully confluent HaCat cells, up to 120 h", "result": "cytotoxic within 24 h"}, {"measurement": "phosphorylation of PLSCR1 after HSV-2", "setting": "[7]", "result": "inhibited"}, {"measurement": "translocation of PtdS and Akt to the outer leaflet of the plasma membrane", "setting": "[8]; 10 μM", "result": "inhibited"}, {"measurement": "phosphorylation of PLSCR1 after VSV-S", "setting": "[9]", "result": "inhibited"}]}, {"compound": "CC(C)NCC(O)COc1cccc2ccccc12", "note": "(stereo not drawn) [Propranolol]", "values": [{"measurement": "Recover %, PAMPA", "setting": "[10]; 100 μM", "result": 85, "unit": "%"}, {"measurement": "Papp, PAMPA", "setting": "[10]; 100 μM in PBS pH 7.4, 5 hours, room temperature", "result": 89.91, "unit": "nm/s"}, {"measurement": "Recover %, MDCK Transport", "setting": "[1]", "result": 93, "unit": "%"}]}, {"compound": "C[C@@H]1C[C@@H]([C@H](O)CC2CC(=O)NC(=O)C2)C(=O)[C@@H](C)C1", "note": "[cycloheximide, reference compound]", "values": [{"measurement": "percentage of GFP+ cells", "setting": "[11]", "result": "significantly reduced"}]}, {"compound": "CCCCCCCCCCCCCCCCn1cc[n+](Cc2ccccc2)c1C", "note": "[NH125]", "values": [{"measurement": "IC50", "setting": "[12]", "result": 23.4, "unit": "µM"}]}, {"compound": "Apyrase", "values": [{"measurement": "detection of PtdS or PLSCR1 at the outer leaflet", "setting": "[8]; 10 U/ml", "result": "no discernible effect"}]}, {"compound": "O=C1Nc2ccc(I)cc2/C1=C/c1cc(Br)c(O)c(Br)c1", "note": "[GW5074]", "values": [{"measurement": "IC50", "setting": "[13]", "result": 8.63, "unit": "µM"}, {"measurement": "IC50", "setting": "[14]", "result": 5.05, "unit": "µM"}, {"measurement": "IC50", "setting": "[15]", "result": 2.57, "unit": "µM"}, {"measurement": "IC50", "setting": "[16]", "result": 1.89, "unit": "µM"}]}]}
